Measurements published in ChEMBL document CHEMBL1201862, “PubChem BioAssay data set” (2004).
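The compound was tested at five concentrations on cells cultured in 96-well plates, with a 48-hour exposure period. The concentration for 50% growth inhibition is given as GI50.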 The source made the active and inactive calls. No stated cut-off is given here; in the data, active = GI50 up to about 1.1 µM and inactive = higher.

How the values were obtained:
Experiment in all cases: inhibition of tumour cell growth, NCI panel, 48 h
786-0 = tested on: 786-0
SW-620 = tested on: SW-620
COLO 205 = tested on: COLO 205
SK-MEL-5 = tested on: SK-MEL-5
M14 = tested on: M14
HT-29 = tested on: HT-29
SK-MEL-28 = tested on: SK-MEL-28
UACC-62 = tested on: UACC-62
MOLT-4 = tested on: MOLT-4
HCT-15 = tested on: HCT-15
OVCAR-8 = tested on: OVCAR-8
SNB-75 = tested on: SNB-75
NCI-H460 = tested on: NCI-H460
SK-MEL-2 = tested on: SK-MEL-2
CAKI-1 = tested on: CAKI-1
NCI-H522 = tested on: NCI-H522
PC-3 = tested on: PC-3
MDA-MB-231 = tested on: MDA-MB-231

SMILES	GI50 (786-0)	GI50 (SW-620)	GI50 (COLO 205)	GI50 (SK-MEL-5)	GI50 (M14)	GI50 (HT-29)	GI50 (SK-MEL-28)	GI50 (UACC-62)	GI50 (MOLT-4)	GI50 (HCT-15) [µM]	GI50 (OVCAR-8)	GI50 (SNB-75)	GI50 (NCI-H460)	GI50 (SK-MEL-2)	GI50 (CAKI-1)	GI50 (NCI-H522)	GI50 (PC-3)	GI50 (MDA-MB-231)
CCN(CC)CC(=O)NC1c2ccccc2Oc2ccccc21	> 100 µM (inactive)	> 100 µM (inactive)	> 100 µM (inactive)	> 100 µM (inactive)	> 100 µM (inactive)	> 100 µM (inactive)	> 100 µM (inactive)	> 100 µM (inactive)	> 100 µM (inactive)	> 100	> 100 µM (inactive)	> 100 µM (inactive)	> 100 µM (inactive)					
N#CCCN(c1ccc(/C=C2\N=C(Cc3ccccc3)OC2=O)cc1)S(=O)(=O)c1ccccc1	> 100 µM (inactive)	> 100 µM (inactive)	> 100 µM (inactive)	> 100 µM (inactive)	> 100 µM (inactive)	> 100 µM (inactive)	> 100 µM (inactive)	> 100 µM (inactive)	> 100 µM (inactive)	> 100	> 100 µM (inactive)	> 100 µM (inactive)	> 100 µM (inactive)	> 100 µM (inactive)	> 100 µM (inactive)	> 100 µM (inactive)		
CC1CCC2c3c([nH]c4ccccc34)C3C(=O)N(c4ccccc4)C(=O)C3C2C1 (stereo unspecified)	13.3 µM (inactive)	> 250 µM (inactive)	> 100 µM (inactive)	> 100 µM (inactive)	46.1 µM (inactive)	> 250 µM (inactive)	> 250 µM (inactive)	30.1 µM (inactive)	25.4 µM (inactive)	> 250	43.5 µM (inactive)	2.65 µM (inactive)	> 250 µM (inactive)	32.5 µM (inactive)	> 250 µM (inactive)	142 µM (inactive)		
O=C(CN1CCN(c2cccc(Cl)c2)CC1)N1CCc2c([nH]c3ccccc23)C1c1cccnc1 (stereo unspecified)	11.8 µM (inactive)	7.14 µM (inactive)		11.9 µM (inactive)	4.47 µM (inactive)	4 µM (inactive)	12.2 µM (inactive)	11.3 µM (inactive)	2.54 µM (inactive)	5.25	19.4 µM (inactive)	7.62 µM (inactive)	4.4 µM (inactive)		12.8 µM (inactive)	12.2 µM (inactive)		
C/C(CC(=O)Nc1cccc([N+](=O)[O-])c1)=N\NC(=O)C[n+]1ccccc1	> 100 µM (inactive)	> 100 µM (inactive)	> 100 µM (inactive)	> 100 µM (inactive)	> 100 µM (inactive)	> 100 µM (inactive)	> 100 µM (inactive)	> 100 µM (inactive)	> 100 µM (inactive)		> 100 µM (inactive)	> 100 µM (inactive)	> 100 µM (inactive)	> 100 µM (inactive)		> 100 µM (inactive)		
C/C(=N\N(C)C)c1sc(-n2nc(-c3ccccc3)cc2-c2ccccc2)nc1C	> 100 µM (inactive)	> 100 µM (inactive)	> 100 µM (inactive)	> 100 µM (inactive)	> 100 µM (inactive)	> 100 µM (inactive)	> 100 µM (inactive)	> 100 µM (inactive)	84.3 µM (inactive)	> 100	> 100 µM (inactive)	15.2 µM (inactive)	> 100 µM (inactive)	> 100 µM (inactive)	> 100 µM (inactive)	> 100 µM (inactive)		
CC(=O)Nc1ccc(/C=C/C(=O)c2sc(-c3cccnc3)nc2C)cc1	> 100 µM (inactive)	> 100 µM (inactive)	> 100 µM (inactive)	> 100 µM (inactive)		> 100 µM (inactive)	> 100 µM (inactive)	> 100 µM (inactive)	> 100 µM (inactive)	> 100	> 100 µM (inactive)	> 100 µM (inactive)	> 100 µM (inactive)	> 100 µM (inactive)	> 100 µM (inactive)	> 100 µM (inactive)		
CCCCCCCCCCCCCCCCOCC(COP(=O)(O)OCC1OC(n2cc(CC)c(=O)[nH]c2=O)CC1O)OC(=O)CCCCCCCCCCCCCCC (stereo unspecified)	> 100 µM (inactive)	> 100 µM (inactive)	> 100 µM (inactive)		> 100 µM (inactive)	> 100 µM (inactive)	> 100 µM (inactive)	> 100 µM (inactive)	> 100 µM (inactive)	> 100	> 100 µM (inactive)	> 100 µM (inactive)		> 100 µM (inactive)	> 100 µM (inactive)	> 100 µM (inactive)	> 100 µM (inactive)	> 100 µM (inactive)
CSc1cccc(-n2c3nc(=O)n(C)c(=O)c-3nc3ccccc32)c1	4.92 µM (inactive)	3.78 µM (inactive)	2.94 µM (inactive)	1.25 µM (inactive)	2.7 µM (inactive)	2.51 µM (inactive)	17.4 µM (inactive)	1.95 µM (inactive)	12 µM (inactive)	5.02	8.83 µM (inactive)	14.5 µM (inactive)	2.4 µM (inactive)	13 µM (inactive)	3.91 µM (inactive)	14.7 µM (inactive)		
